Test results reported in US9068970B2, “Efficient and effective supplement screening for the development of chemically defined media in cell culture” (Abbvie Inc., priority 2010, dated 2015).

Columns and labels:
Assay type in all cases: cell-based
[1] = test system: recombinant IgG producing Chinese Hamster Ovary cell line (CHO cell line #1); assay: 24-well plate media supplement screening: peak viable cell density (CellTiter 96 AQueous); settings: HTS experiments; CDM #1, relative to unsupplemented control
Procedure: (§1) 24-well plates were utilized at a working volume of 1.5 mL per well to serve as the platform for media supplement screening. An in-house, base chemically defined media (CDM #1) was used as the basal media for the purposes of the experiments. A recombinant IgG producing Chinese Hamster Ovary cell line (CHO cell line #1) was used for the media supplement screening phase of the experiments.
All 24-well plate screening experiments were designed using JMP7 commercially available statistics software (Cary, N.C.) using custom experimental options. Six individual media supplement screening experiments were performed to test over a hundred different supplements in statistically designed experiments and in a serial fashion. All screening experiments were performed at […] cultured at 210 rpm on a shaker table in a 5% humidified CO2 incubator. Gas permeable, rayon film plate covers (VWR International, Radnor, Pa., Catalog #60941-086) were employed as necessary to provide a sterile barrier between the well plates, the plastic plate cover, and the culture atmosphere. Supplement solutions were manually pipetted into the respective plate wells using concentrated, sterile stock solutions. The comprehensive list of media supplements evaluated for cell culture process improvement is shown below in Table 2:
(§2) Two cell culture performance indicators were measured in the high-throughput screening experiments: peak viable cell density and harvest titer. Time point samples were withdrawn from each of the respective plate wells on Days 6, 7, and 8 post inoculation and measured for their respective viable cell densities spectrophotometrically via the CellTiter 96 AQueous Solution Cell Proliferation Assay Kits™ (Promega, Madison, Wis.). Harvest Titer measurements were conducted via high performance liquid chromatography (HPLC) with a Poros A™ affinity column (Applied Biosystems, Foster City, Calif.). All experimental wells supplemented with a particular combination of media compounds were compared to an unsupplemented control, with the results expressed as relative values relative to the control.
(§3) Two cell culture performance indicators were measured in the high-throughput screening experiments as well as media verification experiments; peak viable cell density (VCD) and harvest titer. […] A few days after the last cell count measurement sample the plates were centrifuged and the supernatant was collected and stored at −80° C. for future analysis. Harvest titer measurements were conducted via high performance liquid chromatography (HPLC) with a Poros A™ affinity column (Applied Biosystems, Foster City, Calif.). All experimental wells supplemented with a particular combination of media compounds were compared to an unsupplemented control, with the results expressed as values relative to the control. For the media verification experiments in larger-scale shaker and spinner flasks, viable cell density and viability were measured via Cedex automated cell counters (Roche Applied Science, Indianapolis, Ind.). Harvest titer measurements were similarly measured via HPLC.
(§4) Standard Analysis of Variance (ANOVA) was used to measure the significance of individual supplements and their respective interactions towards the resulting cell culture technique performance. Individual analyses were conducted on both peak viable cell density and harvest titer for each of the respective screening experiments. Three different levels of each media supplement were used in these experiments: unsupplemented (Level 1), lightly supplemented (Level 2), and heavily supplemented (Level 3). […] The optimization subroutine intrinsic to the statistics software was used to analyze the screening dataset determine the identity of a high performance media blend. It is important to note that the selection method is a mathematical exercise which can lead to multiple blends identified as having the highest performance parameters, and the results are highly dependent on the initial first guess.

[2] = test system: recombinant IgG producing Chinese Hamster Ovary cell line (CHO cell line #1); assay: 24-well plate media supplement screening: harvest titer (HPLC, Poros A affinity column); settings: HTS experiments; CDM #1, relative to unsupplemented control
Procedure: as §1
All 24-well plate screening experiments were designed using JMP7 commercially available statistics software (Cary, N.C.) using custom experimental options. Six individual media supplement screening experiments were performed to test over a hundred different supplements in statistically designed experiments and in a serial fashion. […] Supplement solutions were manually pipetted into the respective plate wells using concentrated, sterile stock solutions. The comprehensive list of media supplements evaluated for cell culture process improvement is shown below in Table 2:
as §2, §3, §4
The aforementioned supplements were evaluated for improvements in cell culture technique performance.

[3] = test system: recombinant IgG producing Chinese Hamster Ovary cell line (CHO cell line #1); assay: Supplement screening: process performance (peak VCD and/or harvest titer) by inspectional/statistical analysis; settings: univariate analysis of varying supplement concentrations
Procedure: as §4, with “guess. Three particular high performance blends were identified for further evaluation: […] The supplements whose relative concentrations supported a distinct pattern of either increasing or decreasing process performance were categorized into the clustered classification. […] These supplements were either compounds or groups of similar compounds such as polyamines, essential amino acids, and vitamins.” for “guess.”

[4] = test system: recombinant IgG producing Chinese Hamster Ovary cell line (CHO cell line #1); assay: JMP7 statistical identification of high performance media supplementation from a 15-supplement screening experiment; settings: for Concentration Target (Range) for Increase of Harvest Titer / Concentration Target (Range) for Increase of Peak VCD / Concentration Target (Range) for Increase of Peak VCD and Harvest Titer: predicted amount for addition into the unsupplemented control media
Procedure: as §4
Fifteen of these supplements, or groups of supplements, were screened in a separate statistically designed experiment for the final determination of high performance media blends for the maximization of peak VCD, harvest titer, and both of these variables simultaneously.
The JMP7 statistical software program was further used to identify the high performance media supplementation for maximizing peak VCD, harvest titer, and both simultaneously.

[5] = range given, variability in culture volumes

Compound	Effect on Peak VCD [1]	Effect on Harvest Titer [2]	Process Performance Pattern [3]	Concentration Target (Range) for Increase of Harvest Titer [4]	Concentration Target (Range) for Increase of Peak VCD [4]	Concentration Target (Range) for Increase of Peak VCD and Harvest Titer [4]	Concentration Range for Increase of Harvest Titer [4, 5]	Concentration Range for Increase of Peak VCD [4, 5]	Concentration Range for Increase of Peak VCD and Harvest Titer [4, 5]
[Cl-].[Cl-].[Zn+2] [Zinc chloride]	No change	Increase	Clustered	+5.46 × 10^−3 g/L	+2.05 × 10^−3 g/L	+5.12 × 10^−3 g/L	(4.85 × 10^−3-6.22 × 10^−3) g/L	(1.82 × 10^−3-2.33 × 10^−3) g/L	(4.54 × 10^−3-5.83 × 10^−3) g/L
OC1C(O)C(O)C(O)C(O)C1O (centres unmarked) [i-inositol]	No change	No change	Wide dispersal	+0.05 (0.05-0.06) g/L	+0.11 (0.09-0.12) g/L	+0.19 (0.17-0.22) g/L			
OC[C@H]1O[C@@H]2O[C@H]3[C@H](O)[C@@H](O)[C@@H](O[C@H]4[C@H](O)[C@@H](O)[C@@H](O[C@H]5[C@H](O)[C@@H](O)[C@@H](O[C@H]6[C@H](O)[C@@H](O)[C@@H](O[C@H]7[C@H](O)[C@@H](O)[C@@H](O[C@H]1[C@H](O)[C@H]2O)O[C@@H]7CO)O[C@@H]6CO)O[C@@H]5CO)O[C@@H]4CO)O[C@@H]3CO [α-cyclodextrin]	Increase	Increase	Wide dispersal	0 g/L	+0.16 (0.14-0.18) g/L	0 g/L			
OC[C@H]1O[C@@H]2O[C@H]3[C@H](O)[C@@H](O)[C@@H](O[C@H]4[C@H](O)[C@@H](O)[C@@H](O[C@H]5[C@H](O)[C@@H](O)[C@@H](O[C@H]6[C@H](O)[C@@H](O)[C@@H](O[C@H]7[C@H](O)[C@@H](O)[C@@H](O[C@H]8[C@H](O)[C@@H](O)[C@@H](O[C@H]1[C@H](O)[C@H]2O)O[C@@H]8CO)O[C@@H]7CO)O[C@@H]6CO)O[C@@H]5CO)O[C@@H]4CO)O[C@@H]3CO [β-cyclodextrin]	Increase	Increase	Wide dispersal	0 g/L	+0.16 (0.14-0.18) g/L	0 g/L			
Calcium pantothenate	Increase	No change	Wide dispersal	0 g/L	+0.15 (0.13-0.17) g/L	0 g/L			
Manganese chloride	Increase	No change	Wide dispersal	+1.07 × 10^−4 g/L	+6.67 × 10^−5^ g/L	0 g/L	(9.46 × 10^−5-1.21 × 10^−4) g/L	(5.91 × 10^−5-7.59 × 10^−5) g/L	
